Test results taken from US10494402B2, “Peptides that stimulate subcutaneous adipogenesis” (The Regents of the University of California, priority 2012, dated 2019).

Key:
[1] = tested on: 2D rat Pre-adipocytes (rat mesenchymal stem cells); test: Adipogenic potential ranking in 2D tissue culture, rat pre-adipocytes; format: cell-based; details: ranked on a scale of 0-5 with 5 representing the highest possible score
Description: (§1) Examples of the adipogenic effects of RHAMM antagonists (peptide B (SEQ ID NO: 2), peptide P15-1 (SEQ ID NO. 1), and the antibody to peptide B) are summarized in Table 1. Peptide P15-1, peptide B, and a RHAMM antibody were assayed for their effects on pre-adipocyte stem cells in culture and when injected into the dermis of aged rats. Reagents were ranked on a scale of 0-5 with 5 representing the highest possible score and a completely filled in Harvey ball. “2D” refers to two-dimensional tissue culture.

2D human Pre-adipocytes = test: Adipogenic potential ranking in 2D tissue culture, human pre-adipocytes; format: cell-based; details: scale of 0-5, 5 highest
Description: as §1

Human pre-adipocytes = test: Adipogenesis in 3D collagen gel culture; format: cell-based; details: 3D collagen gels in the presence of adipogenic cocktail
Description: The adipogenic activity of peptide B (SEQ ID NO:2) was also examined using a three-dimensional (3D) culture system that models human skin.
Human pre-adipocytes were cultured in 3D collagen gels in the presence of the adipogenic cocktail described above (Adipocyte Differentiation Medium (ZenBio catalog no. DM-2)) and exposed to peptide B (SEQ ID NO: 2). […] The 3D results predict the ability of the B peptide to promote adipogenesis in vivo.

[2] = tested on: mesenchymal stem cells or papillary fibroblasts; test: Adipogenesis by RHAMM antagonists in tissue culture and in vivo (summary statements)
Source text: We hypothesized that the fragment and the antibody were blocking RHAMM function by competitive inhibition and by direct binding/blocking of RHAMM, respectively. Using truncation analyses, the size of the peptide was further reduced to 32 amino acids ([…] (SEQ ID NO: 92)) and it was shown that adipogenic activity is localized to a 15 amino acid peptide (KLKDENSQLKSEVSK (SEQ ID NO: 2); “peptide B” or “B-1” herein) shown in FIG. 2. This peptide was chemically synthesized to use as a competitive blocker, and antibodies were prepared against this sequence tagged with keyhold lymphocyte hemacyanin (KLH) to directly bind/block RHAMM function.
The RHAMM sequence that contains adipogenic activity also contains the hyaluronan binding region of this protein.
All of these reagents can replace insulin in their ability to promote adipogenesis in mesenchymal stem cells or papillary fibroblasts.

[3] = tested on: Female Fisher retired breeder rats; test: In vivo adipogenic activity in female retired breeder rat model; details: 100 μg subcutaneous in 1 ml collagen vehicle; 7 days
Description: The adipogenic activity of the KSEVSK 6-mer (SEQ ID NO: 3) was also evaluated in vivo in a female retired breeder rat model. Female Fisher retired breeder rats (>9 months old) were used in these studies. The rats were injected subcutaneously with a 100 μg dose of the KSEVSK 6-mer peptide in 1 ml of a collagen vehicle or with collagen vehicle alone. The collagen vehicle contained 1 mg/ml of rat tail Type I collagen. […] Rats were injected with KSEVSK 6-mer peptide and collagen vehicle at sites A and C and with collagen vehicle only at sites B and D. Animals were maintained on a regular diet for 7 days and then euthanized Skin was harvested by cutting around the injected area, ensuring that underlying adipose tissue was retained with the skin at the injection sites. The tissue was then photographed and fat accumulation was assessed.

Substance: KLKDENSQLKSEVSK [peptide B]
- adipogenic potential, 2D rat Pre-adipocytes (rat mesenchymal stem cells) [1]: 5
- adipogenic potential, 2D human Pre-adipocytes (2D human Pre-adipocytes): 5
- adipogenesis (light refractory lipid droplets) (Human pre-adipocytes): promoted adipogenesis
- adipogenesis in tissue culture and in vivo [2]: promote adipogenesis in tissue culture and in vivo
- adipogenicity relative to the other reagents of Table 1 [2]: the most adipogenic of these reagents

Substance: KSEVSK [KSEVSK 6-mer]
- fat pad surface area vs collagen vehicle alone [3]: significantly larger
